Measured values from publication PMC11313180 (International Journal of Molecular Sciences, 2024).
Like-named read-outs stand apart in the source and are kept apart here.

Legend:
MCF-7 [1] = experiment: Long-term (10 days) live/dead proliferation assay, calcein AM and Hoechst 33342, MCF-7; format: cell-based, human; conditions: 1 µM exemestane, 1 mM (R)-α-lipoic acid
Method: (§1) Cells were seeded on day one in 96-well plates. […] Then, cells were stained with calcein AM (Millipore Corporation, Billerica, MA, USA) and Hoechst 33342 (Tocris Bioscience, Bristol, UK) for 30 min and fluorescence images monitored by Leica DMi8 Thunder Imager (Leica Microsystems CMS GmbH, Wetzlar, Germany). Five images per well were monitored randomly. Calcein AM- and Hoechst 33342-stained area of the images (i.e., live proliferating cells) were evaluated.

[2] = tested on: caspase 3/7 in MCF-7 cells; experiment: Caspase 3/7 activation assay, MCF-7; format: cell-based, human; conditions: 24 h; 1 µM exemestane, 0.5 mM or 1 mM (R)-α-lipoic acid
Method: (§2) To analyze the compound-induced activation of capases 3 and 7, the CellEvent caspase 3/7 green detection reagent (Thermo Scientific, Wesel, Germany) was used according to the manufacturer’s instructions. […] After 24 h incubation, medium was removed, and cells were stained with 50 µL of CellEvent caspase 3/7 green detection reagent (2 µM in PBS supplemented with 5% heat-inactivated FBS). Cells were incubated for 30 min at 37 °C in a humidified incubator before imaging by using the Thermo Fisher ArrayScan XTI high content screening (HCS) system with a 10× magnification (Thermo Scientific). Hoechst 33342 was added for nuclei staining.

MCF-7 cells = tested on: MCF-7 cells; design: method as in PMID 25738757; conditions: ref [30]; read-out: IC50 in MCF-7 cells, literature; cited from earlier work
T47D [3] = experiment: Immunoblotting, T47D; format: cell-based, human; conditions: 48 h; 1 mM (R)-α-lipoic acid, 1 µM exemestane
Method: (§3) A quantity of 20 or 40 µg of total protein as well as, from PageRuler Prestained Protein Ladder, 10–180 kDA (Thermo Scientific, Wesel, Germany), were resolved by SDS-Page (12% polyacrylamide gel) and transferred to polyvinylidene fluoride membrane (Millipore Corporation, Billerica, MA, USA). Blots were incubated with primary antibodies against acetylated a -tubulin (Cat. No. sc-23950), a -tubulin (Cat. No. sc-8035) (Santa Cruz Biotechnology, Heidelberg, Germany), acetyl histone h3 (Cat. No. 39140) and histone H3 (Cat. No. NB100-1669), ß-actine (Cat. No. sc-47778), p21 (AF1047), c-myk (Cat. No. MAB3696), APAF1 (Cat. No. MAB868), BIM (Cat. No. NBP1-76936), FOXO1 (Cat. No. C29H4), BCL-2 (Cat. No. AF810), and survivin (Cat. No. AF886). After another one-hour incubation with the appropriate HRP-conjugated secondary antibody, proteins were visualized by Intas Imager (Intas, Göttingen, Germany) using luminol reagent (Santa Cruz Biotechnology, Heidelberg, Germany).

[4] = tested on: caspase 3/7 in T47D cells; experiment: Caspase 3/7 activation assay, T47D; format: cell-based, human; conditions: 24 h; 1 µM exemestane, 0.5 mM or 1 mM (R)-α-lipoic acid
Method: as §2

MCF-7 [5] = experiment: Immunoblotting, MCF-7; format: cell-based, human; conditions: 48 h; 1 mM (R)-α-lipoic acid, 1 µM exemestane
Method: as §3

MDA-MB-231 = experiment: MTT cell viability assay, MDA-MB-231; format: cell-based, human; conditions: for IC50: Homo sapiens
Method: MTT assays were performed as previously described. Cell numbers plated differed depending on each incubation time: MDA-MB-231 5000 c/w, MCF-7 5000 c/w (72 h) and 3000 c/w (120 h), T-47D 10,000 c/w (72 h) and 5000 c/w /120 h). After incubation time, medium was replaced by MTT (solution of 5 mg/mL 3-(4,5-dimethylthiazol-2-yl)-2,5-diphenyl-tetrazoliumbromidin in phosphate buffered saline, Serva, Heidelberg, Germany). After 10 min (MCF-7), 20 min (MDA-MB-231), and 30 min (T47D) and dissolving in DMSO (VWR, Langenfeld, Germany), absorbance was measured at 544 nm and 690 nm in a FLUOstar microplate reader (BMG LabTech, Offenburg, Germany).

T47D [6] = experiment: Long-term (10 days) live/dead proliferation assay, calcein AM and Hoechst 33342, T47D; format: cell-based, human; conditions: 1 µM exemestane, 1 mM (R)-α-lipoic acid
Method: as §1

T47D [7] = experiment: MTT cell viability assay, T47D; format: cell-based, human; conditions: for IC50: Homo sapiens, T47D
Method: (§4) MTT assays were performed as previously described. […] After incubation time, medium was replaced by MTT (solution of 5 mg/mL 3-(4,5-dimethylthiazol-2-yl)-2,5-diphenyl-tetrazoliumbromidin in phosphate buffered saline, Serva, Heidelberg, Germany).

T47D [8] = experiment: Cell proliferation by counting Hoechst 33342-stained nuclei, T47D; format: cell-based, human; conditions: 1 µM, 72 h
Method: (§5) Figure 3 Cell proliferation of MCF-7 (a) and T47D cells (b) measured via Hoechst 33342 staining. […] Shown is one representative experiment out of a series of at least three experiments each performed with 3 replicates. Data are mean ± SD. Statistical comparison was performed using a t-test. Levels of significance: ** (p ≤ 0.01); **** (p ≤ 0.0001). Exe = exemestane. (R)-LA = (R)-α-lipoic acid.

MCF-7 [9] = experiment: Cell proliferation by counting Hoechst 33342-stained nuclei, MCF-7; format: cell-based, human; conditions: 1 µM, 72 h
Method: as §5

MCF-7 [10] = experiment: MTT cell viability assay, MCF-7; format: cell-based, human; conditions: for IC50: Homo sapiens
Method: as §4

- IC50 (MDA-MB-231; MDA-MB-231, 72 h, read-out: IC50 MDA-MB-231, 72 h MTT assay): 89.4 ± 2.86 µM
- IC50 (MDA-MB-231; MDA-MB-231, 120 h, IC50 ± SEM, read-out: IC50 MDA-MB-231, 120 h MTT assay): 53.3 ± 3.62 µM
- IC50 (T47D [7]; 72 h, read-out: IC50 T-47D, 72 h MTT assay): 50.6 ± 2.04 µM
- IC50 (T47D [7]; 72 h, read-out: IC50 of exemestane, T-47D (Figure 2b)): 39.2 µM
- IC50 (T47D [7]; 120 h, read-out: IC50 of exemestane, T-47D (Figure 4b)): 24.7 µM
- IC50 (T47D [7]; 120 h, IC50 ± SEM, read-out: IC50 T-47D, 120 h MTT assay): 28.7 ± 0.75 µM
- IC50 (MCF-7 [10]; MCF7, 72 h, read-out: IC50 MCF-7, 72 h MTT assay): 29.1 ± 1.3 µM
- IC50 (MCF-7 [10]; MCF7, 72 h, read-out: IC50 of exemestane, MCF-7 (Figure 2a)): 42.6 µM
- IC50 (MCF-7 [10]; MCF7, 120 h, read-out: IC50 of exemestane, MCF-7 (Figure 4a)): 16.9 µM
- IC50 (MCF-7 [10]; MCF7, 120 h, IC50 ± SEM, read-out: IC50 MCF-7, 120 h MTT assay): 16.1 ± 0.84 µM
SMILES: C=C1C[C@@H]2[C@H](CC[C@]3(C)C(=O)CC[C@@H]23)[C@@]2(C)C=CC(=O)C=C12 [exemestane]
- proliferation and doubling time over 10 days, MCF-7 (MCF-7 [1]): difference between the untreated control and 1 µM exemestane is small
- caspase 3/7 activation, MCF-7 [2]: no caspase 3/7 activation
- IC50 (MCF-7 cells): 30 µM
- expression of survivin and c-myk, T47D (T47D [3]): not affected
- caspase 3/7 activation, T47D [4]: no caspase 3/7 activation
- expression of survivin and c-myk, MCF-7 (MCF-7 [5]): not affected
- less potent in MDA-MB-231 compared to MCF-7 (MDA-MB-231; 72 h MTT IC50 ratio): 3 fold
- less potent in MDA-MB-231 compared to T47D (MDA-MB-231; 72 h MTT IC50 ratio): 1.8 fold
- increase in potency by prolongation of incubation time, MDA-MB-231 (MDA-MB-231; 120 h versus 72 h MTT): 1.7 fold
- proliferation and doubling time over 10 days, T47D (T47D [6]): doubling time was not different between exemestane treatment and untreated condition
- inhibition of cell viability, T47D (T47D [7]; 1 µM alone, 120 h MTT): no
- increase in potency by prolongation of incubation time, T47D (T47D [7]; 120 h versus 72 h MTT): 1.8 fold
- decrease of the number of nuclei, T47D (T47D [8]): around 37%
- decrease of the number of nuclei, MCF-7 (MCF-7 [9]): around 37%
- inhibition of cell viability, MCF-7 (MCF-7 [10]; 1 µM alone, 120 h MTT): 10.2%
- increase in potency by prolongation of incubation time, MCF-7 (MCF-7 [10]; 120 h versus 72 h MTT): 1.8 fold
